Structures can show the parent of a compound that is named as a salt.
Molecular target: T1, acyl-CoA: cholesterol acyltransferase (ACAT) (Oryctolagus cuniculus, UniProt G1SFD9)
T1 construct: in a tissue preparation containing rabbit intestinal microsomes; from tissue; host or cells: rabbit intestine, microsomes
T1 sequence (G1SFD9 1-524): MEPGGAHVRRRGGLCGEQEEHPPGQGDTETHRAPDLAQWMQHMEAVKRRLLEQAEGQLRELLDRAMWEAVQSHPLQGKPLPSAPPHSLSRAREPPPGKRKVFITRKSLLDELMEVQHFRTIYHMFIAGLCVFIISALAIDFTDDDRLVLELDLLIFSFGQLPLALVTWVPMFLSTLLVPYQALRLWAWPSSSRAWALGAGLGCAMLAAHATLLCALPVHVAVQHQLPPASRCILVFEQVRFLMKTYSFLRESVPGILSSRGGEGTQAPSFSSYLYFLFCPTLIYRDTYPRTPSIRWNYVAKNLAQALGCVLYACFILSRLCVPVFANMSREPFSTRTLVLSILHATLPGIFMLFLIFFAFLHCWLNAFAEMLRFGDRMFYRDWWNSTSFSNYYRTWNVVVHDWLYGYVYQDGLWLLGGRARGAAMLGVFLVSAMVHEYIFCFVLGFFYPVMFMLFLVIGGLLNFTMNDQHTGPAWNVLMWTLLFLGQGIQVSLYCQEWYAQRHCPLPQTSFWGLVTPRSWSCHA
Assay: in vitro ACAT inhibition test (radiolabeled cholesterol oleate formed from radiolabeled oleic acid, rabbit intestinal microsomes)
Assay type: biochemical
Settings: concentration required to inhibit the activity of the enzyme by 50%
Protocol: The ability of representative compounds of the present invention to inhibit ACAT was measured using an in vitro test more fully described in F. J. Field and R. G. Salone, Biochemica et Biophysica 712:557-570 (1982). The test assesses the ability of a test compound to inhibit the acylation of cholesterol by oleic acid by measuring the amount of radiolabeled cholesterol oleate formed from radiolabeled oleic acid in a tissue preparation containing rabbit intestinal microsomes.
The data appear in Table 1 where they are expressed as IC50 values; i.e., the concentration of test compound required to inhibit the activity of the enzyme by 50%.

Compound	IC50 [nM]
CC(C)c1cccc(C(C)C)c1NC(=O)C1CC(c2ccc(F)cc2)OC1=O (centres unmarked) [Example 1, N-[2,6-bis(1-methylethyl)phenyl]-5-(4-fluorophenyl)tetrahydro-2-oxo-3-furancarboxamide]	587
CCCCCCCC1CC(C(=O)Nc2c(C(C)C)cccc2C(C)C)C(=O)O1 (centres unmarked) [Example 2, N-[2,6-bis(1-methylethyl)phenyl]-5-heptyltetrahydro-2-oxo-3-furancarboxamide]	260
CCCCCCC1CCC(C(=O)Nc2c(C(C)C)cccc2C(C)C)C(=O)O1 (centres unmarked) [Example 3, N-[2,6-bis(1-methylethyl)phenyl]-6-hexyltetrahydro-2-oxo-2H-pyran-3-carboxamide]	404
CCCCCCCC1CCC(C(=O)Nc2c(C(C)C)cccc2C(C)C)C(=O)O1 (centres unmarked) [Example 4, N-[2,6-bis(1-methylethyl)phenyl]-6-heptyltetrahydro-2-oxo-2H-pyran-3-carboxamide]	336
CC(C)c1cccc(C(C)C)c1NC(=O)C(CC(O)c1ccc(F)cc1)C(=O)O (stereo not drawn) [Example 7, γ-[2,6-bis(1-methylethyl)phenyl]-amino]carbonyl]-4-fluoro-α-hydroxybenzenebutanoic acid monosodium salt]	1330

From patent US5185349A, “Substituted amide ACAT inhibitors lactone derivatives” (priority 1991, dated 1993)
